Experimental data taken from US20050260136A1, “Topical immune competency diagnostic compositions and methods of use” (priority 2004, published 2005).

What was measured:
[1] = system: HIV sero-positive AIDS patients; test: Topical DPC skin reaction test (Reactors/Non-Reactors) in a 28-day observational clinical trial; type: in vivo, human; details: for # Non-Reactor Patients / # Non-Reactor Patients (%) / # Reactor Patients / # Reactor Patients (%): right forearm
Protocol: (§1) For the examples, HIV sero-positive AIDS patients were tested based on HIV sero-positivity for a 28-day observational clinical trial. 40 subjects completed the study. Topical 0.1 ml applications of 0.4%, 0.2%, 0.1%, 0.05% Diphenylcyclopropenone in a proprietary anhydrous skin penetrating vehicle plus the vehicle placebo were made to the inner aspect of the forearms of patients and covered with a 1 inch adhesive bandage. Skin reactivity scores of a 4-point scaled based on induration and erythema were recorded weekly, as were side effects to the topical treatments.
For the examples, skin reaction scores were assigned using the following scale:
For the examples, patients having a skin reaction score of +2, +3 and +4 were considered to have a positive response and are labeled as “Reactors”; patients having a skin reaction score of 0 and +1 were considered to not have a response and are labeled as “Non-Reactors”.
Skin Reactions Scores as indicators of immune function responses following single applications of 0.4%, 0.2%, 0.1% and 0.05% DPC compositions were used to distinguish between patients with T Cell CD4 blood counts less than 300 per cu/mm and patients with T Cell CD4 counts higher than 300 per cu/mm.

[2] = system: HIV sero-positive AIDS patients; test: Side effects of the topical treatments in the 28-day clinical trial; type: in vivo, human; details: 28-day study
Protocol: as §1
Subjects with CD4 counts less than 300 cu/mm were non-skin reactive. This was found in 36 of the 40 subjects. […] Statistical Sensitivity was 87.4% and Specificity was 100% with the 0.4% Topical Diphenylcyclopropenone Solution selected as the optimal dosage concentration. […] None of the subjects withdrew because of side effects.

[3] = 0.05% DPC applied, patients with CD4 <300 cu/mm
[4] = 0.05% DPC applied, patients with CD4 >300 cu/mm
[5] = 0.1% DPC applied, patients with CD4 <300 cu/mm
[6] = 0.1% DPC applied, patients with CD4 >300 cu/mm
[7] = 0.2% DPC applied, patients with CD4 <300 cu/mm
[8] = 0.2% DPC applied, patients with CD4 >300 cu/mm
[9] = 0.4% DPC applied, patients with CD4 <300 cu/mm
[10] = 0.4% DPC applied, patients with CD4 >300 cu/mm
[11] = combined 0.1% + 0.05% DPC dosages, patients with CD4 <300 cu/mm
[12] = combined 00.1% + 0.05% DPC dosages, patients with CD4 >300 cu/mm
[13] = combined 0.4% + 0.2% DPC dosages, patients with CD4 <300 cu/mm
[14] = combined 0.4% + 0.2% DPC dosages, patients with CD4 >300 cu/mm

## O=c1c(-c2ccccc2)c1-c1ccccc1 [DPC, Diphenylcyclopropenone]
[1]; [3]
  # Non-Reactor Patients: 2
  # Non-Reactor Patients (%): 100%
  # Reactor Patients: 0 (0%)
  # Reactor Patients (%): 0 (0%)
[1]; [4]
  # Non-Reactor Patients: 8
  # Non-Reactor Patients (%): 100%
  # Reactor Patients: 0 (0%)
  # Reactor Patients (%): 0 (0%)
[1]; [5]
  # Non-Reactor Patients: 2
  # Non-Reactor Patients (%): 100%
  # Reactor Patients: 0 (0%)
  # Reactor Patients (%): 0 (0%)
[1]; [6]
  # Non-Reactor Patients: 4
  # Non-Reactor Patients (%): 80%
  # Reactor Patients: 1
  # Reactor Patients (%): 20%
[1]; [7]
  # Non-Reactor Patients: 2
  # Non-Reactor Patients (%): 40%
  # Reactor Patients (%): 60%
[1]; [8]
  # Non-Reactor Patients (%): 28.6%
  # Reactor Patients: 5
  # Reactor Patients (%): 71.4%
[1]; [9]
  # Non-Reactor Patients (%): 100%
  # Reactor Patients (%): 0 (0%)
[1]; 0.4% DPC applied, patients with CD4 <300 cu/mm, Non-Reactor = score 0 or +1
  # Non-Reactor Patients: 4
[1]; [10]
  # Non-Reactor Patients (%): 14.3%
  # Reactor Patients: 6
  # Reactor Patients (%): 85.7%
[1]; all 40 subjects of the study
  subjects in whom skin reactivity agreed with CD4 count (>300 cu/mm reactive, <300 cu/mm non-skin reactive): 36 of the 40
[1]; [11]
  Non-Reactors: 4
  Non-Reactors (%): 100%
  Reactors: 0 (0%)
  Reactors (%): 0 (0%)
[1]; [12]
  Non-Reactors: 12
  Non-Reactors (%): 92.3%
  Reactors: 1
  Reactors (%): 7.7%
[1]; [13]
  Non-Reactors: 6
  Non-Reactors (%): 67%
  Reactors: 3
  Reactors (%): 33%
[1]; [14]
  Non-Reactors: 3
  Non-Reactors (%): 21.4%
  Reactors: 11
  Reactors (%): 78.6%
[2]; 40 subjects
  subjects who withdrew because of side effects: None
[2]; topical 0.1 ml applications of 0.05-0.4% DPC
  Side effects: minimal and were limited to adenopathies that were self-limited and disappeared upon completion of the study
